This assay has as its target T1, CRTh2 receptor (Homo sapiens, UniProt Q9Y5Y4).
T1 construct: expressed in transfected cells; host or cells: CHO.K1 cells (membranes)
T1 sequence (Q9Y5Y4 1-395): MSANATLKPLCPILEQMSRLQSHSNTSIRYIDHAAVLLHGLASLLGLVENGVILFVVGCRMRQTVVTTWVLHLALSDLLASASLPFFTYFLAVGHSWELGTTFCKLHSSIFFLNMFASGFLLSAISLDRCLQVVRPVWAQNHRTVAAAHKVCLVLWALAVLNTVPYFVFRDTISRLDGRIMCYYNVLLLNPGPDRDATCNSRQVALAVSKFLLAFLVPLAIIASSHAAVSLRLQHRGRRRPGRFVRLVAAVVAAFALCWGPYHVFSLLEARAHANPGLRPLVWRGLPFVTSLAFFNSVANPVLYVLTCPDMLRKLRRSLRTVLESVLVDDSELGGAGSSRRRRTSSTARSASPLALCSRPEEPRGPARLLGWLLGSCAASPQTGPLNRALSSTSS
In words: CRTh2 GTPγS antagonism binding assay. The conditions noted are these: membranes from CHO.K1 cells stably overexpressing the CRTh2 receptor; PGD2 at 50 nM (EC80); 0.1 nM [35S]-GTPγS; 1 h pre-incubation with compound, then 2 h at room temperature; read-out: GTPγ Binding. The class given is biochemical. As for the experimental part: CRTh2 GTPγS antagonism binding assay
The assay is performed using membranes obtained from CHO.K1 cells stably overexpressing the CRTh2 receptor and [^35S]-GTPγS as radioligand. Assay is performed pre-incubating 4-8 µg of membranes per well with the compound to be tested for 1 h, followed by incubation with PGD2 at 50 nM (EC80), 0.1 nM [^35S]-GTPγS in incubation buffer (20 mM HEPES, 10 mM MgCl2, 100 mM NaCl, 10 µM GDP, 10 µg/ml Saponine and 0.2% BSA) for 2 h at room temperature. The reaction is terminated by filtering in GF/C plates pre-treated with 20 mM HEPES, 10 mM MgCl2, 100 mM NaCl and washing 6 times with wash buffer (20 mM NaH2PO4, 20 mM Na2HPO4). After washing, plates are dried and scintillation buffer Optiphase added. The radioactivity retained in the filter is counted using a Microbeta liquid scintillation counter. Compound IC50 are determined using Excel XL-fit for calculations.
On to `CCN(Cc1cc(C(F)(F)F)ccc1-c1cn(CC(=O)O)c2cccnc12)C(=O)C1CC1` [Example 1, {3-[2-{[(Cyclopropylcarbonyl)(ethyl)amino]methyl}-4-(trifluoromethyl)phenyl]-1H-pyrrolo[3,2-b]pyridin-1-yl}acetic acid], for which the IC50 is 15 nM. Under `CCN(Cc1cc(C(F)(F)F)ccc1-c1cc(CC(=O)O)n2ccc(C(F)(F)F)nc12)C(=O)C1CC1` [Example 22, [8-[2-{[(Cyclopropylcarbonyl)(ethyl)amino]methyl}-4-(trifluoromethyl)phenyl]-2-(trifluoromethyl)pyrrolo[1,2-a]pyrimidin-6-yl]acetic acid] stands 6 nM; under `CCN(Cc1cc(F)ccc1-c1cn(CC(=O)O)c2cccnc12)C(=O)C1CC1` [Example 2, [3-(2-{[(Cyclopropylcarbonyl)(ethyl)amino]methyl}-4-fluorophenyl)-1H-pyrrolo[3,2-b]pyridin-1-yl]acetic acid], 10 nM. For the compound `CCN(Cc1cc(C(F)(F)F)ccc1-c1cc(CC(=O)O)c2ccncn12)C(=O)C1CC1` [Example 26, {7-[2-{[(Cyclopropylcarbonyl)(ethyl)amino]methyl}-4-(trifluoromethyl)phenyl]pyrrolo[1,2-c]pyrimidin-5-yl}acetic acid], the IC50 came out at 32 nM. Under `CCN(Cc1cc(C(F)(F)F)ccc1-c1cc(CC(=O)O)n2cccnc12)C(=O)C1CC1` [Example 20, {8-[2-{[(Cyclopropylcarbonyl)(ethyl)amino]methyl}-4-(trifluoromethyl)phenyl]pyrrolo[1,2-a]pyrimidin-6-yl}acetic acid] stands 13 nM; under `CCN(Cc1ccccc1-n1cc(CC(=O)O)c2ccc(C)nc21)C(=O)C1CC1` [Example 17, [1-(2-{[(Cyclopropylcarbonyl)(ethyl)amino]methyl}phenyl)-6-methyl-1H-pyrrolo[2,3-b]pyridin-3-yl]acetic acid], 5 nM. Under `CCN(Cc1cc(F)ccc1-n1cc(CC(=O)O)c2cccnc21)C(=O)C1CC1` [Example 13, [1-(2-{[(Cyclopropylcarbonyl)(ethyl)amino]methyl}-4-fluorophenyl)-1H-pyrrolo[2,3-b]pyridin-3-yl]acetic acid] stands 17 nM; under `CCN(Cc1cc(C(F)(F)F)ccc1-c1cn(CC(=O)O)c2ccc(C)nc12)C(=O)C1CC1` [Example 3, {3-[2-{[(Cyclopropylcarbonyl)(ethyl)amino]methyl}-4-(trifluoromethyl)phenyl]-5-methyl-1H-pyrrolo[3,2-b]pyridin-1-yl}acetic acid], 16 nM.

As to `CCN(Cc1cc(C(F)(F)F)ccc1-c1cc(CC(=O)O)n2ccc(C)nc12)C(=O)C1CC1` [Example 23, {8-[2-{[(Cyclopropylcarbonyl)(ethyl)amino]methyl}-4-(trifluoromethyl)phenyl]-2-methylpyrrolo[1,2-a]pyrimidin-6-yl}acetic acid], the IC50 was determined as 7 nM. Under `CCN(Cc1cc(C(F)(F)F)ccc1-n1cc(CC(=O)O)c2cccnc21)C(=O)C1CC1` [Example 12, {1-[2-{[(Cyclopropylcarbonyl)(ethyl)amino]methyl}-4-(trifluoromethyl)phenyl]-1H-pyrrolo[2,3-b]pyridin-3-yl}acetic acid] stands 9 nM; under `CCN(Cc1cc(F)ccc1-n1cc(CC(=O)O)c2ccc(C)nc21)C(=O)C1CC1` [Example 16, [1-(2-{[(Cyclopropylcarbonyl)(ethyl)amino]methyl}-4-fluorophenyl)-6-methyl-1H-pyrrolo[2,3-b]pyridin-3-yl]acetic acid], 5 nM. In the case of `CCN(Cc1cc(C(F)(F)F)ccc1-c1cn(C(C)C(=O)O)c2ccc(C)nc12)C(=O)C1CC1` (stereo not drawn) [Example 6, 2-{3-[2-{[(Cyclopropylcarbonyl)(ethyl)amino]methyl}-4-(trifluoromethyl)phenyl]-5-methyl-1H-pyrrolo[3,2-b]pyridin-1-yl}propanoic acid], the IC50 came to 18 nM.

For `CCN(Cc1cc(F)ccc1-c1cn(CC(=O)O)c2ccc(C(F)(F)F)nc12)C(=O)C1CC1` [Example 7, [3-(2-{[(Cyclopropylcarbonyl)(ethyl)amino]methyl}-4-fluorophenyl)-5-(trifluoromethyl)-1H-pyrrolo[3,2-b]pyridin-1-yl]acetic acid], the IC50 was 11 nM. Under `Cc1ccc2c(n1)c(-c1ccc(C(F)(F)F)cc1CN(Cc1ccccc1)C(=O)C1CC1)cn2CC(=O)O` [Example 9, {3-[2-{[Benzyl(cyclopropylcarbonyl)amino]methyl}-4-(trifluoromethyl)phenyl]-5-methyl-1H-pyrrolo[3,2-b]pyridin-1-yl}acetic acid] stands 14 nM; under `CCN(Cc1cc(F)ccc1-c1cc(CC(=O)O)n2cccnc12)C(=O)C1CC1` [Example 21, [8-(2-{[(Cyclopropylcarbonyl)(ethyl)amino]methyl}-4-fluorophenyl)pyrrolo[1,2-a]pyrimidin-6-yl]acetic acid], 20 nM.

The values are drawn from EP2548876A1, “New CRTh2 antagonists” (Almirall, S.A., priority 2011, dated 2013).
